This is an account of results in patent US11629201B2, “PSMA-binding agents and uses thereof” (ITM Isotope Technologies Munich SE, priority 2017, dated 2023).

A word on the logD: it is the decadic logarithm of the distribution of all forms, ionised or not, between an organic phase and buffer at a given pH. Low values mean a more hydrophilic compound, high ones a more lipophilic compound.

The structures appear in SMILES notation. Values joined by “and” are separate entries in the source; they are usually repeats but may differ in a detail not shown here. Identical values can stand only once.

Data set [1] deals with PC-3 PIP/flu tumor-bearing mice. Kind of data set: Biodistribution studies in PC-3 PIP/flu tumor-bearing mice. The following applies: for Tu-to-muscle / Tumor-to-blood / Tumor-to-kidney / Tumor-to-liver: PC-3 PIP tumor.
Data set [2] deals with human plasma proteins. Kind of data set: Ultrafiltration assay, binding to human plasma proteins. The note with it: different dilutions of human plasma.
Description: Therefore, the compounds were labeled with ^177Lu at a specific activity of 50 MBq/nmol and incubated in human plasma samples or PBS at room temperature. The free and plasma-bound fractions were separated using a centrifree ultrafiltration device (4104 centrifugal filter units [Millipore]; 30000 Da nominal molecular weight limit, methylcellulose micropartition membranes). The incubated solution was loaded to the ultrafiltration device and centrifuged at 2500 rpm for 40 min at 20° C. Samples from the filtrate were taken an analyzed for radioactivity in a gamma-counter. The amount of plasma-bound compound was calculated as the fraction of radioactivity measured in the filtrate relative to the corresponding loading solution (set to 100%).
Determination of Albumin-binding Properties. The binding of the radioligands to human plasma proteins was determined by an ultrafiltration assay. […] Three independent experiments were performed in duplicates with both radioligands and the data was fitted to a semi-logarithmic plot (non-linear regression, one-site, specific binding) to obtain the half maximum binding (B50) in GraphPad Prism software (version 7).
The ^177Lu-labeled PSMA ligands (50 MBq/nmol) were diluted in mouse plasma (Rockland, USA) and human plasma (Stiftung Blutspende SRK Aargau-Solothurn, Switzerland), respectively, and incubated for 15 min at room temperature. In addition, the radioligands were diluted in PBS (buffer solution without proteins) as a control experiment. Aliquots of the solutions were loaded onto an ultrafiltration device and centrifuged. The filtered activity was measured with a γ-counter and used for calculating the plasma protein-bound activity (retained on the filter membrane) as the percentage of total added activity. […] Statistical analysis (one-way ANOVA with Bonferroni's multiple comparison post-test) was performed using GraphPad Prism software, version 7. A p-value of <0.05 was considered statistically significant.
Data set [3] in a line: n-Octanol/PBS distribution coefficient (log D). It is filed as physicochemical. The following applies: n-octanol/PBS; radiolabeled ligand, 50 MBq/nmol, PBS pH 7.4. The protocol: The radioligand (0.5 MBq; 10 pmol, 25 μL) was then added to a reagent tube containing 1475 μL of PBS pH 7.4 and 1500 μL of n-octanol. The vials were vortexed vigorously followed by a centrifugation step for phase separation.
Determination of n-Octanol/PBS Distribution Coefficients (Log D Values). The distribution coefficients (log D values) of the ^64Cu-labeled radioligands (50 MBq/nmol) were determined by a shake-flask method using liquid-liquid extraction followed by phase separation as previously reported. Three experiments were performed with five replicates for each radioligand. Statistical significance of the data (p<0.05) was evaluated using an unpaired t-test (GraphPad Prism software, version 7).
Determination of n-Octanol/PBS Distribution Coefficients (Log D Values). […] A sample of the radioligands was mixed with phosphate-buffered saline (PBS) and n-octanol followed by vigorous vortexing. […] Three experiments were performed with five replicates for each compound.

Data set [4] deals with PC-3 PIP/flu tumor-bearing mice. The experiment in a line: PET/CT imaging of PC-3 PIP/flu tumor-bearing mice. It is filed as in vivo. The following applies: 16 h after injection. The protocol:
PET/CT Imaging Studies. PET/CT experiments were performed at 1 h, 4 h and 24 h after injection of the radioligands (5 MBq/l nmol). Mice were injected into a lateral tail vein with the respective radioligand (5 MBq, 1 nmol, 100 μL) diluted in saline containing 0.05% BSA. PET/CT scans were performed using a small-animal PET/CT scanner (G8, Perkin Elmer, Massachusetts, U.S.) as previously reported. The PET scans lasted for 10 min and were followed by a CT scan of 1.5 min. During the in vivo scans, the mice were anesthetized with a mixture of isoflurane and oxygen. Reconstruction of acquired data was performed using the software of the provider of the G8 scanner. All images were prepared using VivoQuant post-processing software (version 3.0, inviCRO Imaging Services and Software, Boston USA). The images were prepared by cutting 2% of the lower scale to make the tumors, liver and kidneys best visible.

Data set [5] relates to PSMA-positive PC-3 PIP cells. Kind of data set: Cell uptake and internalization in PSMA-positive PC-3 PIP cells. Type of data set: cell-based.
Data set [6] has as its system metastatic castration-resistant prostate cancer. Kind of data set: Individual curative trial, PET-CT, Gallium-68 labeled compound (Case 2). Type of data set: in vivo, human. The following applies: patient; radiolabeled with Gallium-68. The text has this: The compound PSMA-ALB-06, radiolabeled with a positron emitting radionuclide Gallium-68 was used in an individual curative trial in a patient with metastatic castration-resistant prostate cancer as a diagnostic agents for PET-CT. […] The high contrast of the images increases over the time after injection confirming the prolonged blood clearance and high specific uptake in the tumors.

The test system of data set [7] is prostate adenocarcinoma with metastases. The experiment in a line: Individual curative trial, SPECT-CT, Lutetium-177 labeled compound (Case 1). It is filed as in vivo, human. The following applies: patient, radiolabeled with Lutetium-177. As for the experimental part:
The compound PSMA-ALB-06, radiolabeled with therapeutic radionuclide Lutetium-177 was used in the scope of an individual curative trial in a patient with mildly differentiated prostate adenocarcinoma with extensive bilobar liver metastases, as well as disseminated osteoblastic metastases (in the pelvic region), and polytopic voluminous lymph node metastases. The evaluation of the biodistribution and in vivo behavior of the radiolabeled compound PSMA-ALB-06 was performed by means of SPECT-CT measurements.
The SPECT-CT visualization was performed at different time points up to 46 hours post injection (p.i.). […] The blood clearance is completed within first hours, whereas the unspecific uptake in healthy organs (especially liver, salivary and kidney) remains moderate over the time.

In data set [1] (1 h p.i.), `Cc1ccc(CCCC(=O)NCCCC[C@H](NC(=O)CCC(C(=O)O)N2CCN(CC(=O)O)CCN(CC(=O)O)CC2)C(=O)NC[C@H]2CC[C@H](C(=O)N[C@H](Cc3ccc4ccccc4c3)C(=O)NCCCC[C@@H](NC(=O)N[C@H](CCC(=O)O)C(=O)O)C(=O)O)CC2)cc1` (stereo partly drawn) [^64Cu-PSMA-ALB-89, metal not drawn] registered a Tu-to-muscle of 9.0 ± 1.13, a Tumor-to-blood of 0.91 ± 0.02, a Tumor-to-kidney of 0.40 ± 0.02 and a Tumor-to-liver of 3.37 ± 0.31. In data set [1] (4 h p.i.), this compound yielded a Tu-to-muscle of 36.3 ± 2.25, a Tumor-to-blood of 3.61 ± 0.30, a Tumor-to-kidney of 0.70 ± 0.04 and a Tumor-to-liver of 13.3 ± 1.20. Moreover, in data set [1] (24 h p.i.), the Blood is recorded as less than 3.2 % IA/g, the “PC-3 PIP Tumor” value was 97.1±7.01 % IA/g, the Tu-to-muscle worked out at 200±38.2 and the Tumor-to-blood is listed as 31.3 ± 3.82. Moreover, in data set [1] (24 h p.i.), the Tumor-to-kidney turned out to be 2.68 ± 0.36 and the Tumor-to-liver was found to be 23.6 ± 3.37. For the same compound, in data set [2], the “half-maximum binding (B50), [HSA]-to-[radioligand] ratio” value is 454 and 770. Besides, the logD in data set [3] is -2.3 ± 0.7. Further, the “tumor-to-kidney ratio of accumulated radioligand (visual examination)” value in data set [4] was greater than 1. In data set [5] (2 h), this compound returned a cell uptake of roughly 46% and an internalized fraction of roughly 14%. In data set [5] (4 h), the cell uptake was roughly 52% and the internalized fraction is roughly 14%.

Turning to `Cc1ccc(CCCC(=O)NCCCCC(NC(=O)CN2CCN(CC(=O)O)CCN(CC(=O)O)CCN(CC(=O)O)CC2)C(=O)NCC2CCC(C(=O)NC(Cc3ccc4ccccc4c3)C(=O)NCCCCC(NC(=O)NC(CCC(=O)O)C(=O)O)C(=O)O)CC2)cc1` (stereo not drawn) [PSMA-ALB-06], the “visualization of malignant tissues (PET)” value in data set [6] is recorded as “Malignant tissues could be visualized by means of PET with high specificity”. Besides, the “uptake in malignant tissues (SPECT-CT)” value in data set [7] is on record as “substantial specific uptake of the radiolabeled compound in malignant tissues”. In addition, the “blood circulation and bioavailability” value in data set [7] (up to 46 hours p.i.) is “prolonged blood circulation and improved bioavailability”.
